Assay results reported in patent publication US20220411381A1, “PYRIMIDINEDIONE DERIVATIVES” (Bayer Aktiengesellschaft, priority 2019, published 2022).
Where two headings read alike, the source gives them in different places.

How the values were obtained:
U87-MG cells = assay: In vitro assay 2: BCAT cellular assay, leucine in medium of U87-MG cells; type: cell-based; conditions: 24 hours incubation, leucine level in medium (LeuDH/diaphorase/resazurin readout)
Experimental: (§1) In Vitro Assay 2: BCAT Cellular Assay
(§2) Levels of leucine were measured in medium of different tumor cell lines. The enzyme BOAT (Branched chain amino acid transferase) catalyzes the consumption of leucine.
(§3) Cells (U87-MG and MDA-MB231 from ATCC) were grown in Dulbecco's Modified Eagle Medium (DMEM) containing 10% fetal calf serum. They were harvested by trypsin and seeded into 96-well plates. Cells were incubated overnight at 37° C. in an atmosphere containing 5% carbon dioxide. The next day test compounds were added to each cell well. The final concentration of dimethylsulfoxide (DMSO) was 0.1% and DMSO controls were included. The plates were then placed in an incubator for 24 hours.
(§4) Leucine was measured in an enzymatic readout with leucine dehydrogenase (LeuDH) and diaphorase. Medium is deproteinized with perchloric acid. 30 μl of 1 M aqueous perchloric acid was added to each well and the plates were centrifuged.

MDA-MB231 cells = assay: In vitro assay 2: BCAT cellular assay, leucine in medium of MDA-MB231 cells; type: cell-based; conditions: 24 hours incubation, leucine level in medium (LeuDH/diaphorase/resazurin readout), read-out: MDAMB-231 IC50
Experimental: as §1, §2, §3, §4

[1] = target: T1, recombinant human BCAT2 enzyme (Homo sapiens, UniProt O15382); assay: In vitro assay 1b: BCAT2 biochemical assay (coupled LeuDH/NADH fluorescence readout); conditions: recombinant human BCAT2 […], 32° C., 100 μM leucine, 50 μM α-ketoglutarate, NADH fluorescence over 90 min; read-out: BCAT2 IC50; further: recombinant human BCAT2 0.75 nM
T1 construct: purchased ATGen (South Korea) ATGP1523
T1 sequence (O15382 28-392): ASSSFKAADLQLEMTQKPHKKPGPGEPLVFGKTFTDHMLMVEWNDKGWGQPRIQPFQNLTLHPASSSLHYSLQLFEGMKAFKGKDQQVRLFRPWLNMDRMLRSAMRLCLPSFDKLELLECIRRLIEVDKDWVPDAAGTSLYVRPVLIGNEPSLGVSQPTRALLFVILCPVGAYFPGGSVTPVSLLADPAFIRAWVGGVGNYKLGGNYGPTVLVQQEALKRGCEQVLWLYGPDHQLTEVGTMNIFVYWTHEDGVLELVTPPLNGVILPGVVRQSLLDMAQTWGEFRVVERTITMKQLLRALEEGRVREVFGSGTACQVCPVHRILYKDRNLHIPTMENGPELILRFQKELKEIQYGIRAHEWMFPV
How it was run: (§5)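 Transamination of leucine to KIC coupled to LeuDH-driven NADH-dependent reduction of KIC, NADH consumption read by fluorescence; 32° C in 50 mM HEPES pH 8.0, 50 mM ammonium sulfate, 1 mM EDTA, 2 mM DTT, 0.01% BSA, 0.005% Brij 35, 0.5 μM PLP.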

[2] = target: T2, recombinant human BCAT1 enzyme (Homo sapiens, UniProt P54687); assay: In vitro assay 1a: BCAT1 biochemical assay (coupled LeuDH/NADH fluorescence readout); conditions: recombinant human BCAT1 […], 32° C., 100 μM leucine, 50 μM α-ketoglutarate, NADH fluorescence over 90 min; read-out: BCAT1 IC50
T2 construct: purchased ATGen (South Korea) ATGP1479
T2 sequence (P54687 1-386): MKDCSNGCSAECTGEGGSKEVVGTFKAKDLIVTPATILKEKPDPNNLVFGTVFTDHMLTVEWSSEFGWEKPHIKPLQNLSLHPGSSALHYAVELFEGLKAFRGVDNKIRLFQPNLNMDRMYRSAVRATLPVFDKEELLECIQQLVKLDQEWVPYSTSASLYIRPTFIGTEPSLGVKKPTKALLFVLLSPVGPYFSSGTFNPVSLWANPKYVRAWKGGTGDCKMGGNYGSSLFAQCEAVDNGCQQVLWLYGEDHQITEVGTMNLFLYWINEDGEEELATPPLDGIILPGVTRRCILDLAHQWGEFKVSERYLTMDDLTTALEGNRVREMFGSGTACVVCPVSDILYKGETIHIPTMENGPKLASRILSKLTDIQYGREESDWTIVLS
How it was run: as §5

| IC50 (U87-MG cells; Homo sapiens, U-87 MG, 24 h) | IC50 (MDA-MB231 cells; Homo sapiens, MDA-MB-231, 24 h) | IC50 [1] | IC50 [2] | IC50 (U87-MG cells) | IC50 (MDA-MB231 cells) | SMILES |
| --- | --- | --- | --- | --- | --- | --- |
| 11.1 µM | > 30 µM | 5.5 µM | 0.315 µM | – | – | Cc1ccccc1Oc1cc(-n2c(=O)cc(Br)[nH]c2=O)c(F)cc1C#N [Example 3, 4-(4-Bromo-2,6-dioxo-3,6-dihydropyrimidin-1(2H)-yl)-5-fluoro-2-(2-methylphenoxy)benzonitrile] |
| 20 µM | 17 µM | 0.83 µM | 0.148 µM | – | – | COc1cc(C#N)c(Oc2ccccc2Cl)cc1-n1c(=O)cc(C(F)(F)F)[nH]c1=O (racemic) [Example 15, 2-(2-Chlorophenoxy)-4-[2,6-dioxo-4-(trifluoromethyl)-3,6-dihydropyrimidin-1(2H)-yl]-5-methoxybenzonitrile (rac)] |
| – | – | 0.14 µM | – | 12.5 µM | 3.8 µM | COc1cc(C#N)c(Oc2ccccc2C)cc1-n1c(=O)cc(S(=O)(=O)c2ccccc2)[nH]c1=O (single isomer, unassigned) [Example 78, 4-[4-(Benzenesulfonyl)-2,6-dioxo-3,6-dihydropyrimidin-1(2H)-yl]-5-methoxy-2-(2-methylphenoxy)benzonitrile (atrop 2)] |
| 5.4 µM | 10.8 µM | 2.5 µM | 0.15 µM | – | – | COc1cc(C#N)c(Oc2ccccc2Cl)cc1-n1c(=O)cc(C(F)(F)F)[nH]c1=O (single isomer, unassigned) [Example 16, 2-(2-Chlorophenoxy)-4-[2,6-dioxo-4-(trifluoromethyl)-3,6-dihydropyrimidin-1(2H)-yl]-5-methoxybenzonitrile (atrop 1)] |
| 16.5 µM | – | 0.77 µM | – | – | 16 µM | COc1cc(C#N)c(Oc2ccccc2C)cc1-n1c(=O)cc(S(=O)(=O)c2ccccc2)[nH]c1=O (single isomer, unassigned) [Example 77, 4-[4-(Benzenesulfonyl)-2,6-dioxo-3,6-dihydropyrimidin-1(2H)-yl]-5-methoxy-2-(2-methylphenoxy)benzonitrile (atrop 1)] |
| 25 µM | > 30 µM | 6 µM | 0.675 µM | – | – | N#Cc1ccc(-n2c(=O)cc(C(F)(F)F)[nH]c2=O)cc1Oc1ccccc1Cl [Example 46, 2-(2-Chlorophenoxy)-4-[2,6-dioxo-4-(trifluoromethyl)-3,6-dihydropyrimidin-1 (2H)-yl]benzonitrile] |
| 30 µM | > 30 µM | – | 1.33 µM | > 30 µM | – | Cc1ccccc1Oc1cc(-n2c(=O)cc(-c3cccc(Cl)c3)[nH]c2=O)c(F)cc1C#N [Example 70, 4-[4-(3-Chlorophenyl)-2,6-dioxo-3,6-dihydropyrimidin-1(2H)-yl]-5-fluoro-2-(2-methylphenoxy)benzonitrile] |
| 7.5 µM | 9 µM | – | 2.16 µM | – | – | Cc1ccccc1Oc1cc(-n2c(=O)cc(-c3ccc(C(F)(F)F)cc3)[nH]c2=O)c(F)cc1C#N [Example 68, 4-{2,6-Dioxo-4-[4-(trifluoromethyl)phenyl]-3,6-dihydropyrimidin-1(2H)-yl}-5-fluoro-2-(2-methylphenoxy)benzonitrile] |
| 4.63 µM | 12 µM | 2.2 µM | 0.445 µM | – | – | Cc1ccccc1Oc1cc(-n2c(=O)cc(C(F)(F)Cl)[nH]c2=O)c(F)cc1C#N [Example 40, 4-{4-[Chloro(difluoro)methyl]-2,6-dioxo-3,6-dihydropyrimidin-1(2H)-yl}-5-fluoro-2-(2-methylphenoxy)benzonitrile] |
| 13 µM | 30 µM | 6 µM | 0.39 µM | – | > 30 µM | Cc1cc(C#N)c(Oc2ccccc2Cl)cc1-n1c(=O)cc(C(F)(F)F)[nH]c1=O (racemic) [Example 10, 2-(2-Chlorophenoxy)-4-[2,6-dioxo-4-(trifluoromethyl)-3,6-dihydropyrimidin-1 (2H)-yl]-5-methylbenzonitrile (rac)] |
